We go through four molecules from patent publication US20170007595A1, “NSD3 INHIBITORS FOR TREATMENT OF CANCERS” (THE BRIGHAM AND WOMEN'S HOSPITAL, INC., priority 2014, published 2017).

One assay has as its system macrophages. The settings on record: cited from earlier work.
The subject of another assay is BET Bromodomains. The settings on record: cited from earlier work.
The subject of assay [1] is 1221 cells (NSD3-NUT-positive NMC). Briefly: high throughput 384-well immunofluorescence analysis (keratin, Ki-67, cell number) of 1221 NMC cells. The conditions noted are these: 72 h, dose-dependent. In kind it is cell-based, human. The procedure:
For TC-797, Per403, and 8645 cells, 7×10^6 cells were transfected with 50 nM siRNA using Nucleofector II (Lonza, Basel, Switzerland) and Amaxa solution R and plated in 100 mm cell culture dish. 1221 cells were transfected using RNAi-MAX (Invitrogen) using the manufacturer's protocol. Briefly, reverse transfection procedure was used to deliver 50 nM siRNA to 33×10^4 cells in a 6 well plate. Cells were analyzed for mRNA levels 24 h after transfection. Sequences of siRNA used were: siControl, ON-TARGET plus siRNA #1 (Dharmacon, Cat # D-001810-01-20), siNUT-1 (targeting coding sequence) […] (SEQ ID NO: 57), siNUT-2 (targeting the 3′ UTR) […] (SEQ ID NO: 58), siBRD4 5′ siGENOME Human BRD4 (Dharmacon Cat # D-004937-02), siBRD4 3′ […] (SEQ ID NO: 59), siNSD3-6 ON-TARGETplus Human WHSC1L1 (54904) (Dharmacon Cat # J-012875-06), siNSD3-7, ON-TARGETplus Human WHSC1L1 (54904) siRNA (Dharmacon Cat # J-012875-07), siNSD3 3′-1 […] (SEQ ID NO: 15), si NSD3 3′-2 […] […]
Cells were transfected in 384 well format using 50 nM control siRNA (above), NSD3 siRNA (above), BRD4 siRNA, and NUT siRNA (above), as described (6), or a dose range of JQ1 treatment. […] Each condition was performed in triplicate in 384-well plate format in three separate experiments, where wells were analyzed using MetaXpress with Multi Wavelength Cell Scoring for cell number, average keratin fluorescence pixel intensity, and % Ki-67 per well. […]

For assay [2], the target named is T1, NSD3 (endogenous, wild type) (human, UniProt Q9BZ95 1-1437, limits assumed).
T1 construct: Endogenous protein of cell lysates detected with an anti-NSD3 antibody; also called wild type NSD3; WHSC1L1
T1 sequence: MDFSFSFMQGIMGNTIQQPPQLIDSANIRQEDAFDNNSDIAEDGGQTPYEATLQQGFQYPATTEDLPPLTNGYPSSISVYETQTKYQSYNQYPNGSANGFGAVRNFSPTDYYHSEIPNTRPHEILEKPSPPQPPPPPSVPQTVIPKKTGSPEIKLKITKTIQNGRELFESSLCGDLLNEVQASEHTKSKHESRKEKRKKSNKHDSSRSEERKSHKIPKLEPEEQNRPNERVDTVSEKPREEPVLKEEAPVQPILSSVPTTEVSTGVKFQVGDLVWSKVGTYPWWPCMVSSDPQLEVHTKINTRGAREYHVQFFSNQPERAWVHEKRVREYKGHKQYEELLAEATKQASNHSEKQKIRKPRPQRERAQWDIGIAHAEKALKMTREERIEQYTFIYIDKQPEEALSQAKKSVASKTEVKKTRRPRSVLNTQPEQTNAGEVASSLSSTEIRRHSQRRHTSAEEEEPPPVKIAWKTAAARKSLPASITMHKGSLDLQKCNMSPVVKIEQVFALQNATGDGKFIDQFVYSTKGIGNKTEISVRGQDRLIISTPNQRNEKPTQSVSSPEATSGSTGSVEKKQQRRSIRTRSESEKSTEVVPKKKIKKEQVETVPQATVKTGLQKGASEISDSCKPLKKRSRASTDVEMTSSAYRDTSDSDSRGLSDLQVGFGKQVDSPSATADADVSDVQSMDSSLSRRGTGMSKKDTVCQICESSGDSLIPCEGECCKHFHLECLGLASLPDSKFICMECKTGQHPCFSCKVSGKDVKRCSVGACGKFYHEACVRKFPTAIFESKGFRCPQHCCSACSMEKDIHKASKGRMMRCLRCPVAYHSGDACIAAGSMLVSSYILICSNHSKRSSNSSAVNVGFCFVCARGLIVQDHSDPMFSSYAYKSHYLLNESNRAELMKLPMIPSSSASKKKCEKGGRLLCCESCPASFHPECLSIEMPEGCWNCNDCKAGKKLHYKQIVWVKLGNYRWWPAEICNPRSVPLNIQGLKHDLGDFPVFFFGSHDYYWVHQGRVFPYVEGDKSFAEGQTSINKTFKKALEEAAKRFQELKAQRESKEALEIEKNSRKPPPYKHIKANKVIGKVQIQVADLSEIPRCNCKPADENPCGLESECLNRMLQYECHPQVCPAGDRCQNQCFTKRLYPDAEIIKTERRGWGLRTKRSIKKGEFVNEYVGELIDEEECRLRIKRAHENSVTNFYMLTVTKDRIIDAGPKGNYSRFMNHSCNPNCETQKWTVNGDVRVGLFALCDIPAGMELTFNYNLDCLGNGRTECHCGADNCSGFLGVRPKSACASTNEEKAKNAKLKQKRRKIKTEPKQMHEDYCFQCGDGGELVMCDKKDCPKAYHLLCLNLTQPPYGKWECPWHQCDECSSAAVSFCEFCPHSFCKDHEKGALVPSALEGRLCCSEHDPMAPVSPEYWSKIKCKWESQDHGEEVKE
Briefly: anti-HA co-immunoprecipitation from C33A-6TR lysates, Western blot with anti-NSD3.
Method: For co-immunoprecipitation experiments of HA-tagged proteins, C33A-6TR cells stably expressing HA-tagged constructs under a Tet-inducible promoter were used. Protein extracts were prepared 24 h after transfection or induction with Doxycycline (1 μg/ml). Cells were lysed in lysis buffer (50 mM Tris-HCl [pH 7.5], 150 mM NaCl, 0.5% Nonidet P-40) with freshly added protease inhibitors (Roche Complete, EDTA free protease inhibitor cocktail, Roche, Indianapolis, Ind.). Extracts were adjusted for protein concentration and 10% of extracts were used as Input Immunoprecipitations were performed using 15 μl of HA-resin (Sigma A2095). Extracts were incubated overnight at 4° C., and precipitated proteins were detected by Western blot analysis.

As for `CCNC(=O)C[C@@H]1N=C(c2ccc(Cl)cc2)c2cc(OC)ccc2-n2c(C)nnc21` [I-BET-762], the “production of proinflammatory proteins by macrophages” value in the assay with macrophages is “suppresses the production of proinflammatory proteins”.

For `O=c1cc(N2CCOCC2)oc2c(-c3ccccc3)cccc12` [LY294002], in the assay on BET Bromodomains, the BET inhibition result is on record as “reported to be a BET inhibitor”. Turning to `Cc1sc2c(c1C)C(c1ccc(Cl)cc1)=N[C@@H](CC(=O)OC(C)(C)C)c1nnc(C)n1-2` [JQ1, (S)-tert-butyl 2-(4-(4-chlorophenyl)-2,3,9-trimethyl-6H-thieno[3,2-f][1,2,4]triazolo[4,3-a][1,4]diazepin-6-yl)acetate], the “differentiation (keratin intensity)” value in assay [1] (dose range of JQ1 vs DMSO) is reported as “results in differentiation”. In assay [1] (increasing concentrations of JQ1 vs DMSO), the “proliferation (cell number)” value is listed as “arrested proliferation”.

B1: HA-tagged NUT (full length) (other)
chain: MASDGASALPGPDMSMKPSAALSPSPALPFLPPTSDPPDHPPREPPPQPIMPSVFSPDNPLMLSAFPSSLLVTGDGGPCLSGAGAGKVIVRVKTEGGSAEPSQTQNFILTQTALNSTAPGTPCGGLEGPAPPFVTASNVKTILPSKAVGVSQEGPPGLPPQPPPPVAQLVPIVPLEKAWPGPHGTTGEGGPVATLSKPSLGDRSKISKDVYENFRQWQRYKALARRHLSQSPDTEALSCFLIPVLRSLARLKPTMTLEEGLPLAVQEWEHTSNFDRMIFYEMAERFMEFEAEEMQIQNTQLMNGSQGLSPATPLKLDPLGPLASEVCQQPVYIPKKAASKTRAPRRRQRKAQRPPAPEAPKEIPPEAVKEYVDIMEWLVGTHLATGESDGKQEEEGQQQEEEGMYPDPGLLSYINELCSQKVFVSKVEAVIHPQFLADLLSPEKQRDPLALIEELEQEEGLTLAQLVQKRLMALEEEEDAEAPPSFSGAQLDSSPSGSVEDEDGDGRLRPSPGLQGAGGAACLGKVSSSGKRAREVHGGQEQALDSPRGMHRDGNTLPSPSSWDLQPELAAPQGTPGPLGVERRGSGKVINQVSLHQDGHLGGAGPPGHCLVADRTSEALPLCWQGGFQPESTPSLDAGLAELAPLQGQGLEKQVLGLQKGQQTGGRGVLPQGKEPLAVPWEGSSGAMWGDDRGTPMAQSYDQNPSPRAAGERDDVCLSPGVWLSSEMDAVGLELPVQIEEVIESFQVEKCVTEYQEGCQGLGSRGMISLGPGETLVPGDTESSVIPCGGTVAAAALEKRNYCSLPGPLRANSPPLRSKENQEQSCETVGHPSDLWAEGCFPLLESGDSTLGSSKETLPPTCQGNLLIMGTEDASSLPEASQEAGSRGSFSPLLETIEPVNILDVKDDCGLQLRVSEDTCPLNVHSYDPQGEGRVDPDLSKPKNLAPLQESQESYTTGTPKATSSHQGLGSTLPRRGTRNAIVPRETSVSKTHRSADRAKGKEKKKKEAEEEDEELSNFAYLLASKLSLSPREHPLSPHHASGGQGSQRASHLLPAGAKGPSKLPYPVAKSGKRALAGGPAPTEKTPHSGAQLGVPREKPLALGVVRPSQPRKRRCDSFVTGRRKKRRRSQ
notes: also called HA-NUT; not shown: N-terminal HA tag
Consider B1, for which, in assay [2], the binding result is reported as “no binding”.
